Numbers after ± are expanded uncertainties.

The conditions of the series: 351.55 K; Liquid; Ebulliometric method (Recirculating still).

In general, vapor or sublimation pressure refers to the equilibrium pressure above the liquid or solid. For `CCO` [ethanol], the “vapor or sublimation pressure” value is listed as 101.32 ± 1.1 kPa.
